Source: PMC6099574, “Synthesis, Design, and Structure–Activity Relationship of the Pyrimidone Derivatives as Novel Selective Inhibitors of Plasmodium falciparum Dihydroorotate Dehydrogenase” (Molecules : A Journal of Synthetic Chemistry and Natural …, 2018)
Where two headings read alike, the source gives them in different places.

Key:
[1] = set-up: method as in PMID 27641613; conditions: compared with DSM 265; cited from earlier work
[2] = set-up: method as in PMID 27641613; conditions: compared with DSM 265; cited from earlier work; remark: listed apart in the source
[3] = set-up: method as in PMID 27641613; conditions: compared with DSM 265; cited from earlier work; remark: listed apart in the source
[4] = set-up: method as in PMID 24073986; conditions: cited from earlier work
Dd2 cells = system: Dd2 cells; set-up: method as in PMID 24073986; conditions: read-out: IC50 parasite growth in vitro, Dd2 cells; cited from earlier work
PfDHODH (Phe158–Ser569) [5] = molecular target: T1, PfDHODH (Phe158–Ser569) (Plasmodium falciparum, UniProt Q08210); set-up: method as in PMID 24073986; conditions: previous work; read-out: IC50 against PfDHODH; cited from earlier work
T1 construct: enzyme activity determination of PfDHODH (Phe158–Ser569) and hDHODH (Met30–Arg396); made in house

[6] = set-up: method as in PMID 24073986; conditions: cited from earlier work; remark: listed apart in the source
hDHODH (Met30–Arg396) [7] = molecular target: T2, hDHODH (Met30–Arg396) (Homo sapiens, UniProt Q02127); set-up: method as in PMID 24073986; conditions: previous work; cited from earlier work
T2 construct: enzyme activity determination of PfDHODH (Phe158–Ser569) and hDHODH (Met30–Arg396); made in house

3D7 cells = system: 3D7 cells; set-up: method as in PMID 24073986; conditions: read-out: IC50 parasite growth in vitro, 3D7 cells; cited from earlier work
hDHODH (Met30–Arg396) [8] = molecular target: T2, hDHODH (Met30–Arg396); experiment: In vitro enzyme assay, hDHODH (DCIP reduction); type: biochemical; conditions: for IC50: in vitro enzyme assay
Procedure: (§1) Protein expression, purification, and enzyme activity determination of PfDHODH (Phe158–Ser569) and hDHODH (Met30–Arg396) were performed according to our previous work. The enzymes were diluted to a final concentration of 10 nM using the assay buffer containing 50 mM HEPES (pH 8.0), 150 mM KCl, 0.1% Triton X-100 supplemented with 100 µM UQ0, and 120 µM DCIP. The mixture was transferred into a 96-well plate and incubated with or without various amounts of inhibitors for 5 min at room temperature, and then the dihydroorotate was added to a final concentration of 500 µM to initiate the reaction. The reaction was monitored by measuring the decrease in DCIP in the absorption at 600 nm at each 30 s over a period of 6 min. Brequinar and DSM1 were measured as the positive controls for hDHODH and PfDHODH, respectively. Percent inhibition relative to no inhibitor control was calculated by (1 − Vi/V0) × 100. For the determination of the IC50 value of the inhibitor, eight or nine different concentrations were applied. Each inhibitor concentration point was tested in triplicate, and the IC50 values were calculated using the sigmoidal fitting option of the program Origin 8.0 (Originlab, Northampton, MA, US).

PfDHODH (Phe158–Ser569) [9] = molecular target: T1, PfDHODH (Phe158–Ser569); experiment: In vitro enzyme assay, PfDHODH (DCIP reduction); type: biochemical; conditions: for inhibitory activity against PfDHODH (in words): qualitative statement
Procedure: as §1, with “Brequinar and DSM1 were measured as the positive controls for hDHODH and PfDHODH, respectively.” left out

[10] = in vitro enzyme assay, read-out: IC50 (μM) PfDHODH

T2 sequence (Q02127 29-395 limits assumed): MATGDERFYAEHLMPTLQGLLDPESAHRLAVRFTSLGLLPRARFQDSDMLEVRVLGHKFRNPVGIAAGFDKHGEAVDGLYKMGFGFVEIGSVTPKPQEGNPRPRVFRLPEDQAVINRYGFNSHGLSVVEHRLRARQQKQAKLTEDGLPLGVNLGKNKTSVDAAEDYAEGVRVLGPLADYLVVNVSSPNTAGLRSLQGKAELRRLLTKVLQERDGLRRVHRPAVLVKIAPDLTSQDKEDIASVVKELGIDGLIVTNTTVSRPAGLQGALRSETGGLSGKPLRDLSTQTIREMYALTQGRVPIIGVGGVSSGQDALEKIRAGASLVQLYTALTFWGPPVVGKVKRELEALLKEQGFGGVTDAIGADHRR
T1 sequence (Q08210 158-569): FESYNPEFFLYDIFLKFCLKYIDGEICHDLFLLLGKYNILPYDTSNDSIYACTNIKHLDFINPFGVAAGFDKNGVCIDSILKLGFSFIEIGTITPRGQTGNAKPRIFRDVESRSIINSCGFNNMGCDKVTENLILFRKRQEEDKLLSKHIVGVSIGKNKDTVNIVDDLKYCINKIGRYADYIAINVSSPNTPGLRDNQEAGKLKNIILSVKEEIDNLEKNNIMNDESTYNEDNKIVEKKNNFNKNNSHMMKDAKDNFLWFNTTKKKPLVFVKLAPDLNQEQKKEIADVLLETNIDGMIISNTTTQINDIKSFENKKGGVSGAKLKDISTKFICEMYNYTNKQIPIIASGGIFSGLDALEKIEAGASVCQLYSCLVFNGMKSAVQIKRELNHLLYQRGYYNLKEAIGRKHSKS

## Cc1cc(Nc2ccc(C(F)(F)F)nc2)n2nc(C(C)(F)F)nc2n1 [Compound 9]
[1]
  intrinsic clearance (in words): lower intrinsic clearance
[2]
  plasma exposure after oral dosing (in words): increased plasma exposure after oral dosing
[3]
  solubility (in words): improved solubility

## CCOC(=O)C1=C(Nc2ccc3ccccc3c2)OCC1=O [Compound 10]
[4]
  efficacy in vivo (in words): less effective in vivo
Dd2 cells
  IC50: 0.018 µM
PfDHODH (Phe158–Ser569) [5]
  IC50: 0.006 µM
[6]
  metabolic properties (in words): poor metabolic properties
hDHODH (Met30–Arg396) [7]
  species selectivity over hDHODH: > 14,000 fold
3D7 cells
  IC50: 0.015 µM

## O=C(O)C1=C(Nc2ccc3ccccc3c2)OCC1=O [Compound 11, 2-(Naphthalen-2-ylamino)-4-oxo-4,5-dihydrofuran-3-carboxylic acid]
hDHODH (Met30–Arg396) [8]
  IC50: > 10 µM
other
  melting point: 164.4 to 165 °C
PfDHODH (Phe158–Ser569) [9]; [10]
  IC50: 0.106 ± 0.009 µM
PfDHODH (Phe158–Ser569) [9]
  inhibitory activity against PfDHODH (in words): lower inhibitory activity in comparison with 10

## CCNC(=O)C1=C(Nc2ccccc2)OCC1=O [Compound 12, N-Ethyl-4-oxo-2-(phenylamino)-4,5-dihydrofuran-3-carboxamide]
hDHODH (Met30–Arg396) [8]
  IC50: 2.4 ± 0.1 µM
other
  melting point: 146.9 to 147.4 °C
PfDHODH (Phe158–Ser569) [9]; [10]
  IC50: > 10 µM
PfDHODH (Phe158–Ser569) [9]
  inhibitory activity against PfDHODH (in words): inactive

## CCNC(=O)C1=C(Nc2ccc3c(c2)CCC3)OCC1=O [Compound 13, 2-[(2,3-Dihydro-1H-inden-5-yl)amino]-N-ethyl-4-oxo-4,5-dihydrofuran-3-carboxamide]
hDHODH (Met30–Arg396) [8]
  IC50: > 10 µM
other
  melting point: 127.7 to 128.2 °C
PfDHODH (Phe158–Ser569) [9]; [10]
  IC50: > 10 µM

## CNC(=O)C1=C(Nc2ccc3ccccc3c2)OCC1=O [Compound 14, N-Methyl-2-(naphthalen-2-ylamino)-4-oxo-4,5-dihydrofuran-3-carboxamide]
hDHODH (Met30–Arg396) [8]
  IC50: > 10 µM
other
  melting point: 126.3 to 126.9 °C
PfDHODH (Phe158–Ser569) [9]; [10]
  IC50: 9 ± 1 µM

## CCNC(=O)C1=C(Nc2ccc3ccccc3c2)OCC1=O [Compound 15, N-Ethyl-2-(naphthalen-2-ylamino)-4-oxo-4,5-dihydrofuran-3-carboxamide]
hDHODH (Met30–Arg396) [8]
  IC50: > 10 µM
other
  melting point: 121.8 to 123 °C
PfDHODH (Phe158–Ser569) [9]; [10]
  IC50: 4.8 ± 0.4 µM

## CCCNC(=O)C1=C(Nc2ccc3ccccc3c2)OCC1=O [Compound 16, 2-(Naphthalen-2-ylamino)-4-oxo-N-propyl-4,5-dihydrofuran-3-carboxamide]
hDHODH (Met30–Arg396) [8]
  IC50: > 10 µM
PfDHODH (Phe158–Ser569) [9]; [10]
  IC50: > 10 µM
PfDHODH (Phe158–Ser569) [9]
  inhibitory activity against PfDHODH (in words): lost their activities

## O=C1COC(Nc2ccc3ccccc3c2)=C1C(=O)NC1CC1 [Compound 18, N-Cyclopropyl-2-(naphthalen-2-ylamino)-4-oxo-4,5-dihydrofuran-3-carboxamide]
hDHODH (Met30–Arg396) [8]
  IC50: > 10 µM
other
  melting point: 140.8 to 141.6 °C
PfDHODH (Phe158–Ser569) [9]; [10]
  IC50: 6 ± 1 µM

## O=C1COC(Nc2ccc3ccccc3c2)=C1C(=O)NCC1CC1 [Compound 19, N-(Cyclopropylmethyl)-2-(naphthalen-2-ylamino)-4-oxo-4,5-dihydrofuran-3-carboxamide]
hDHODH (Met30–Arg396) [8]
  IC50: > 10 µM
other
  melting point: 164.8 to 165.3 °C
PfDHODH (Phe158–Ser569) [9]; [10]
  IC50: > 10 µM
PfDHODH (Phe158–Ser569) [9]
  inhibitory activity against PfDHODH (in words): lost the inhibitory activity

## NNC(=O)C1=C(Nc2ccc3ccccc3c2)OCC1=O [Compound 20, 2-(Naphthalen-2-ylamino)-4-oxo-4,5-dihydrofuran-3-carbohydrazide]
hDHODH (Met30–Arg396) [8]
  IC50: > 10 µM
other
  melting point: 167.3 to 167.9 °C
PfDHODH (Phe158–Ser569) [9]; [10]
  IC50: 0.07 ± 0.01 µM

## CCN1CN(c2ccc3c(c2)CCC3)C2=C(C(=O)CO2)C1=O [Compound 21, 1-(2,3-Dihydro-1H-inden-5-yl)-3-ethyl-2,3-dihydrofuro[2,3-d]pyrimidine-4,5(1H,6H)-dione]
hDHODH (Met30–Arg396) [8]
  IC50: > 10 µM
other
  melting point: 128.6 to 129.4 °C
PfDHODH (Phe158–Ser569) [9]; [10]
  IC50: > 10 µM

## CN1CN(c2ccc3ccccc3c2)C2=C(C(=O)CO2)C1=O [Compound 22, 3-Methyl-1-(naphthalen-2-yl)-2,3-dihydrofuro[2,3-d]pyrimidine-4,5(1H,6H)-dione]
hDHODH (Met30–Arg396) [8]
  IC50: > 10 µM
other
  melting point: 127.9 to 128.5 °C
PfDHODH (Phe158–Ser569) [9]; [10]
  IC50: 8 ± 1 µM

## CCN1CN(c2ccc3ccccc3c2)C2=C(C(=O)CO2)C1=O [Compound 23, 3-Ethyl-1-(naphthalen-2-yl)-2,3-dihydrofuro[2,3-d]pyrimidine-4,5(1H,6H)-dione]
hDHODH (Met30–Arg396) [8]
  IC50: > 10 µM
other
  melting point: 128.3 to 129 °C
PfDHODH (Phe158–Ser569) [9]; [10]
  IC50: 4 ± 1 µM

## CCCN1CN(c2ccc3ccccc3c2)C2=C(C(=O)CO2)C1=O [Compound 24, 1-(Naphthalen-2-yl)-3-propyl-2,3-dihydrofuro[2,3-d]pyrimidine-4,5(1H,6H)-dione]
hDHODH (Met30–Arg396) [8]
  IC50: > 10 µM
other
  melting point: 128.6 to 129.7 °C
PfDHODH (Phe158–Ser569) [9]; [10]
  IC50: 12 ± 6 µM

## O=C1COC2=C1C(=O)N(C1CC1)CN2c1ccc2ccccc2c1 [Compound 25, 3-Cyclopropyl-1-(naphthalen-2-yl)-2,3-dihydrofuro[2,3-d]pyrimidine-4,5(1H,6H)-dione]
hDHODH (Met30–Arg396) [8]
  IC50: > 10 µM
other
  melting point: 128.8 to 129.5 °C
PfDHODH (Phe158–Ser569) [9]
  IC50: 5 ± 1 µM

## NN1CN(c2ccc3ccccc3c2)C2=C(C(=O)CO2)C1=O [Compound 26, 3-Amino-1-(naphthalen-2-yl)-2,3-dihydrofuro[2,3-d]pyrimidine-4,5(1H,6H)-dione]
hDHODH (Met30–Arg396) [8]; PfDHODH versus hDHODH
  species selectivity over hDHODH: > 400 fold
hDHODH (Met30–Arg396) [8]
  IC50: > 10 µM
other
  melting point: 168.4 to 169.2 °C
PfDHODH (Phe158–Ser569) [9]; compared with compound 20
  fold more active against PfDHODH than compound 20: 3 fold
PfDHODH (Phe158–Ser569) [9]; [10]
  IC50: 0.023 ± 0.001 µM
